The target of the assay is T1, farnesoid X receptor (FXR) (Homo sapiens, UniProt Q96RI1).
T1 sequence (Q96RI1 1-486): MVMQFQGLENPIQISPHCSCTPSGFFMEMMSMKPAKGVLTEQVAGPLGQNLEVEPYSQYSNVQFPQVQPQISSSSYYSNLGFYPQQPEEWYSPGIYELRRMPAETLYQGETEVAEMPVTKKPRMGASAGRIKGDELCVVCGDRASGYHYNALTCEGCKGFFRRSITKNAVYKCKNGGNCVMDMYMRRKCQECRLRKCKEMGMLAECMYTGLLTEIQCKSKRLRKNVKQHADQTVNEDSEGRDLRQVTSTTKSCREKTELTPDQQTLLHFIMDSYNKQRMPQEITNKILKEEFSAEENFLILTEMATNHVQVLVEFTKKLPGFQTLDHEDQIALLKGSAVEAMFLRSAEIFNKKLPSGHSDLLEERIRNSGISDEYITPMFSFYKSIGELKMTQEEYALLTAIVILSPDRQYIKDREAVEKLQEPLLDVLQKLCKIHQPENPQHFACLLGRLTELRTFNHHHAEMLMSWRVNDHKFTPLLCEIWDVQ
In words: Recruitment Coactivator Assay (AlphaScreen) for FXR activation. Conditions: read-out: activating activity (EC50) for FXR. The assay is classed as biochemical. As to the method:
The farnesoid X receptor (FXR) activation of the compounds of the present invention is determined by Recruitment Coactivator Assay, i.e. AlphaScreen. Specific in vitro pharmacodynamic evaluation experimental program has referred to the literature J Pharmacol Exp Ther 350:56-68, July 2014.
In general terms: Alpha assays give light when donor and acceptor beads are brought close together.

For “3α, 7[…]-Dihydroxy-6α-(Ethyl-d4)-5β-Cholan-24-Acid [Example 7]”, the EC50 (usually the concentration at which the effect is half-maximal) is below 200 nM.

For the origin of these results see patent US10544185B2 (Suzhou Zelgen Biopharmaceuticals Co., Ltd., priority 2015, dated 2020).
